Measurements reported in patent publication US9073874B2, “Cyclic N,N′-diarylthioureas and N,N′-diarylureas-androgen receptor antagonists, anticancer agent, method for preparation and use thereof” (priority 2010, dated 2015).
Entries after “also recorded” stand apart in the source; their conditions may differ.

Columns and labels:
androgen receptors = molecular target: T1, androgen receptors (Homo sapiens, UniProt P10275, T878A); test: cell-based; assay type: cell-based
T1 construct: host or cells: LNCaP
T1 sequence (P10275 1-920 T878A): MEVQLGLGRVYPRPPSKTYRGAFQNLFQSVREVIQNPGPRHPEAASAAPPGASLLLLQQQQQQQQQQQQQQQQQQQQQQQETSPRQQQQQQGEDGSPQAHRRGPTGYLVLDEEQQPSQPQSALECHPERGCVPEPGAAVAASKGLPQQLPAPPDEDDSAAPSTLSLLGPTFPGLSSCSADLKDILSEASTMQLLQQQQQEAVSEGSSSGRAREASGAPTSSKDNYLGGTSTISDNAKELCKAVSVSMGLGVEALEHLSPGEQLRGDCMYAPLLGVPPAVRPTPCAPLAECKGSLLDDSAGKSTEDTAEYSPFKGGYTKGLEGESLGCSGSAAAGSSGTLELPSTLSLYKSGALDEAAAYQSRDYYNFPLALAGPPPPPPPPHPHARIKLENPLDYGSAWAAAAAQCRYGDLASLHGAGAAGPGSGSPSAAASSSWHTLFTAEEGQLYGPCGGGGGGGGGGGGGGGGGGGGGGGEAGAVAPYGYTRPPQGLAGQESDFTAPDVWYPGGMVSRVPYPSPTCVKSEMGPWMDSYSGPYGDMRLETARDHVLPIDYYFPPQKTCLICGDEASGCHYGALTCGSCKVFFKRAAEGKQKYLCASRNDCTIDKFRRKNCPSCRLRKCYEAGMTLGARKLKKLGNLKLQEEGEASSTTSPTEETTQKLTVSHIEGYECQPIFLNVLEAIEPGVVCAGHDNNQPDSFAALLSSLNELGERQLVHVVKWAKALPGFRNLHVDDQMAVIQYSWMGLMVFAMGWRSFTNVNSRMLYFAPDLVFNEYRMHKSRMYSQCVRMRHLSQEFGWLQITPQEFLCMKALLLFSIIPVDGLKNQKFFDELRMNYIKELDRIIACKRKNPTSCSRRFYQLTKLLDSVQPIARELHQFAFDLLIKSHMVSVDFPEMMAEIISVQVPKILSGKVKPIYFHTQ
Method: The expression of PSA was measured in the culture medium 24 hours thereafter (FIG. 1). […] The LnCAP cells were cultured for a further 5 days and the number of viable cells was then calculated.
FIG. 1. Inhibition of DHT-stimulated PSA expression in LnCAP cells.
These cells are sensitive towards 5-a-dihydrotestosterone (DHT) and in the presence thereof produce cancer markers (PSA). […] Before the experiment, the cells were washed and suspended in the same medium, in which, however, a serum treated with charcoal for removal of hormone traces was used instead of calf serum. The cells (10 000 in total) were embedded into the wells of 96-well plates at 100 μl per well and left for 4 days in an incubator at 37° C. […] The cells were incubated for a further 5 days under the same conditions. Then, samples of the supracellular medium were taken and analyzed for PSA. The test was carried out according to the protocol recommended by the manufacturer of the kit for PSA measurement (Alpha Diagnostic International, USA). After wetting the wells containing PSA antibodies attached to their bottoms, 25 μl of test compounds and 100 μl of PSA antibodies pre-conjugated to horseradish peroxidase were added successively to each well. Following a 30-minute incubation at room temperature, the content of each well was removed, the wells were washed several times, and 100 μl of a peroxidase chromogenic substrate was then added to each well. […] Based on data about the dependence of DHT-related reduction of PSA synthesis on the concentration of test compounds, dose-response curves were plotted to determine IC50 values. Said values were used for calculating apparent inhibition constants (Ki) for compounds of general formula I according to Cheng-Prusoff equation. [Cheng, Y., Prusoff, W. H. “Relationship between the inhibition constant (Ki) and the concentration of inhibitor which causes 50 percent inhibition (IC50) of an enzymatic reaction”. Biochem Pharmacol.

[1] = Distribution in plasma, brain and prostate after single IV administration in rats; assay type: in vivo; conditions: for concentration at 30 min / concentration at 120 min: rat, plasma; for concentration at 30 min / concentration at 120 min / Brain / Plasma / Prostate: Mean ± SD, n = 3
CYP 3A = CYP 3A induction assay; assay type: in vitro ADME
[2] = Maximum tolerated dose, peroral once a day for 5 days in CD1 male mice; assay type: in vivo
Method: The maximum tolerated doses (MTD) of novel antagonists (R)-1 and their analog Ia were determined in experiments on CD1 male mice at peroral administration once a day for 5 days in doses of 10, 30, and 100 mg/kg. The compound was dissolved in sterile water with addition of Tween 80. Sterile water with Tween 80 was given to control animals (Placebo group). Animals' body weight and mortality rate were estimated. Statistical comparison of groups was carried out according to a non-parametric ANOVA test using Statistica software.

LnCAP-Z2 tumors = test: Prostate cancer xenograft model, SCID male mice bearing LnCAP-Z2 tumors; assay type: in vivo; conditions: analysis of individual tumors, 21 days oral
Method: SCID male mice bearing LnCAP-Z2 tumors (mean volume˜160-190 mm^3) were treated daily by oral gavage with vehicle or drugs for 21 days. Individual tumor volume change by the end of the study. Percentage of change in individual tumor volumes as compared to the start of treatment.
FIG. 6. […] SCID male mice bearing LnCAP-Z2 tumors (mean volume˜160-190 mm^3) treated daily by oral gavage with vehicle or drugs for 21 days. Individual tumor volume change by the end of the study. Percentage of change in individual tumor volumes compared to the start of treatment.
FIG. 7. […] SCID male mice bearing LnCAP-Z2 tumors (mean volume˜160-190 mm^3) treated daily by oral gavage with vehicle or drugs for 21 days. (A)—Tumor weight by the end of the study. Mean±SEM are presented. […] (B)—PSA expression by the end of the study. Plasma samples were collected 24 hours after the last drug administration. Mean±SEM are presented.
The antitumor efficacy of (R)-1 was tested in a xenograft model of prostate cancer (FIGS. 6 and 7). Male immunodeficient mice harboring LnCAP-Z2 tumors were treated orally for 21 days with either vehicle or (R)-1 at 20 and 50 mg/kg once daily and at 20 mg/kg twice daily. […] Twenty-four hours after last treatment, blood samples were collected from all animals and used for measuring PSA expression and drug concentration. In addition, the concentration of drugs and Ki67 expression were measured in tumor samples.

[3] = CD1 male mice, peroral, 100 mg/kg

CNC(=O)c1ccc(N2C(=S)N(c3ccc(C#N)c(C(F)(F)F)c3)C(=O)C23CCOC3)cc1F (racemic) [compound 1, 4-[3-(4-Cyano-3-trifluoromethyl-phenyl)-4-oxo-2-thioxo-7-oxa-1,3-diaza-spiro[4.4]non-1-yl]-2-fluoro-N-methyl-benzamide]
AR antagonistic activity (in words) (androgen receptors): comparable with that of Ia

CNC(=O)c1ccc(N2C(=S)N(c3ccc(C#N)c(C(F)(F)F)c3)C(=O)C2(C)C)cc1F [Ia, MDV3100]
concentration at 30 min ([1]; single IV 2 mg/kg, 30 min): 263 ± 19 ng/mL | concentration at 120 min ([1]; single IV 2 mg/kg, 120 min): 377 ± 153 ng/mL | Brain ([1]; single IV 2 mg/kg, 30 min): 164 ± 19 ng/g | Plasma ([1]; single IV 2 mg/kg, 30 min): 263 ± 19 ng/mL | Prostate ([1]; single IV 2 mg/kg, 30 min): 102 ± 4 ng/g | Brain ([1]; single IV 2 mg/kg, 120 min): 152 ± 31 ng/g | Plasma ([1]; single IV 2 mg/kg, 120 min): 377 ± 153 ng/mL | Prostate ([1]; single IV 2 mg/kg, 120 min): 124 ± 27 ng/g | Positive control, % (CYP 3A induction) (CYP 3A; Concentration 1 μM): 10.0 ± 2.0% | Positive control, % (CYP 3A induction) (CYP 3A; Concentration 10 μM): 73.3 ± 6.8% | MTD at 5 days ([2]; CD1, mouse, in vivo, oral, male CD-1 mice, peroral once a day for 5 days): ~30 mg/kg | p, body weight versus Placebo group ([2]; CD1 male mice, 100 mg/kg, 5th day): 0.002 | body weight versus control animals (Placebo group) [2, 3]: statistically differed | mortality [2, 3]: One animal died | mortality ([2]; CD1 male mice, peroral, doses below 100 mg/kg (10 and 30 mg/kg)): did not lead to death; also recorded: did not cause death | maximum tolerated dose (MTD) ([2]; male CD-1 mice, peroral once a day for 5 days): about 30 mg/kg | effect on individual tumors (in words) (LnCAP-Z2 tumors): stimulate tumor regression

CNC(=O)c1ccc(N2C(=S)N(c3cnc(C#N)c(C(F)(F)F)c3)C(=O)C23CCC3)cc1F [III]
concentration at 30 min ([1]; single IV 1 mg/kg, 30 min): 251 ± 29 ng/mL | concentration at 120 min ([1]; single IV 1 mg/kg, 120 min): 153 ± 10 ng/mL | Brain/Plasma ([1]; single IV 1 mg/kg, 30 min): 0.96 ± 0.03 | Prostate/Plasma ([1]; single IV 1 mg/kg, 30 min): 1.94 ± 0.24 | Brain ([1]; single IV 1 mg/kg, 30 min): 241 ± 21 ng/g | Plasma ([1]; single IV 1 mg/kg, 30 min): 251 ± 29 ng/mL | Prostate ([1]; single IV 1 mg/kg, 30 min): 487 ± 73 ng/g | Brain/Plasma ([1]; single IV 1 mg/kg, 120 min): 1.15 ± 0.27 | Prostate/Plasma ([1]; single IV 1 mg/kg, 120 min): 3.15 ± 0.94 | Brain ([1]; single IV 1 mg/kg, 120 min): 176 ± 31 ng/g | Plasma ([1]; single IV 1 mg/kg, 120 min): 153 ± 10 ng/mL | Prostate ([1]; single IV 1 mg/kg, 120 min): 482 ± 120 ng/g | Positive control, % (CYP 3A induction) (CYP 3A; Concentration 1 μM): 16.3 ± 2.5% | Positive control, % (CYP 3A induction) (CYP 3A; Concentration 10 μM): 102.7 ± 13.0%

CNC(=O)c1ccc(N2C(=S)N(c3ccc(C#N)c(C(F)(F)F)c3)C(=O)[C@@]23CCOC3)cc1F [(S)-1]
Ki (androgen receptors): 215 nM
